Assay results as given in US20120034613A1, “Apparatus and Method for Testing Relationships Between Gene Expression and Physical Appearance of Skin” (NSE Products, Inc., priority 2010, published 2012).

What was measured:
facial skin = experiment: Clinical investigator grading of facial attributes, 9-point ordinal scale, 12 week clinical study; type: in vivo, human; conditions: for Cheek Wrinkles clinical grading Mean: Baseline mean 2.41; for Under-Eye Area Wrinkles clinical grading Mean: Baseline mean 3.19; for Crows Feet Wrinkles clinical grading Mean: Baseline mean 3.29; for Face Tactile Roughness/Smoothness clinical grading Mean: Baseline mean 3.48; for Face Fine Lines (Overall) clinical grading Mean: Baseline mean 4.29; for Face Pore Size clinical grading Mean: Baseline mean 4.41; for Face Global Firmness Appearance clinical grading Mean: Baseline mean 5.03; for Face Mottled Pigmentation clinical grading Mean / Face Uneven Skin Tone clinical grading Mean: Baseline mean 5.05; for Face Jawline Contour clinical grading Mean: Baseline mean 5.16; for Face Overall Appearance clinical grading Mean: Baseline mean 5.47; for Face Radiance clinical grading Mean: Baseline mean 5.81
Description: At baseline (Visit 1), each prospective subject completed an Eligibility and Health Questionnaire, and read and signed a Confidentially Agreement, a Photography Release Form and an Informed Consent Agreement. Each subject was explained the type of study, the detailed procedures and materials to be tested, along with any known adverse reactions that may result from participation. Subjects arrived at the clinic having refrained from applying any moisturizer to the face at least 3 to 5 days prior to visit and having cleansed the face to remove all makeup at least 30 minutes prior to visit. Subjects were consequently not allowed to use any other topical cosmeceuticals, topical retinoid, or moisturizers during the 12 week duration of the study. Subjects used the study product on their face twice daily for 12 weeks. Ordinal grading on a 9-point scale (0=none, 1-3=mild, 4-6=moderate, 7-9=severe) of facial fine lines, mottled pigmentation, uneven skin tone, tactile roughness, global firmness appearance, jaw-line contour, radiance and overall appearance was performed by investigator at baseline, week 1, week 4, week 8 and week 12. Digital high-resolution photography was performed on the front, right and left sides of the face. Each image was taken while the subject's eyes were open. Each subject's baseline photograph was compared to each post-baseline photograph to ensure consistent placement and lighting. Color standards were imaged prior to each study visit. All clinical and corneometer measurements and evaluations were taken at baseline, week 1 (visit 2), week 4 (visit 3), week 8 (visit 4) and week 12 (visit 5). Ultrasound and cutometer measurements and evaluations were taken at baseline, week 4 (visit 3), week 8 (visit 4) and week 12 (visit 5). Completed patient's diaries were reviewed for compliance at each visit. Mean clinical grading and instrumentation scores at each visit were statistically compared to baseline scores using paired t-test. Changes from baseline were considered significant at the p≦0.05 level. Mean percent change from baseline and incidence of positive responders were calculated for all attributes. Comparisons, based on the average from baseline, were made between the test materials using analysis of variance (ANOVA).

[1] = test system: facial skin in the crow's feet area; experiment: Ultrasound measurement of density of the facial skin, 12 week clinical study; type: in vivo, human; conditions: for Ultrasound Density Mean: Baseline mean 18.55
Description: Ultrasound measurements were taken on the left side of each subject's face to measure density of the facial skin in the crow's feet area. Measurements were taken with the probe oriented perpendicular to the body axis while the subjects were resting supine on a padded patient table. All clinical and corneometer measurements and evaluations were taken at baseline, week 1 (visit 2), week 4 (visit 3), week 8 (visit 4) and week 12 (visit 5). Ultrasound and cutometer measurements and evaluations were taken at baseline, week 4 (visit 3), week 8 (visit 4) and week 12 (visit 5). Completed patient's diaries were reviewed for compliance at each visit. Mean clinical grading and instrumentation scores at each visit were statistically compared to baseline scores using paired t-test. Changes from baseline were considered significant at the p≦0.05 level. Mean percent change from baseline and incidence of positive responders were calculated for all attributes. Comparisons, based on the average from baseline, were made between the test materials using analysis of variance (ANOVA).

OCc1ccccc1O[C@@H]1O[C@H](CO)[C@@H](O)[C@H](O)[C@H]1O [Salicin, 2-(Hydroxymethyl)phenyl β-D-glucospyranoside] was tested, and the “Cheek Wrinkles clinical grading Mean” value (facial skin; Week 1) was 2.29, the “Under-Eye Area Wrinkles clinical grading Mean” value (facial skin; Week 1) was 3.07 and the “Crows Feet Wrinkles clinical grading Mean” value (facial skin; Week 1) was 3.21. The “Face Tactile Roughness/Smoothness clinical grading Mean” value (facial skin; Week 1) was 2.41, the “Face Fine Lines (Overall) clinical grading Mean” value (facial skin; Week 1) was 4.14 and the “Face Pore Size clinical grading Mean” value (facial skin; Week 1) was 4.30. For the same compound, the “Face Global Firmness Appearance clinical grading Mean” value (facial skin; Week 1) was 5.04, the “Face Mottled Pigmentation clinical grading Mean” value (facial skin; Week 1) was 5.05 and the “Face Uneven Skin Tone clinical grading Mean” value (facial skin; Week 1) was 5.05. For the same compound, the “Face Jawline Contour clinical grading Mean” value (facial skin; Week 1) was 5.14, the “Face Overall Appearance clinical grading Mean” value (facial skin; Week 1) was 5.21 and the “Face Radiance clinical grading Mean” value (facial skin; Week 1) was 5.20. The “Cheek Wrinkles clinical grading % Change” value (facial skin; Week 1 vs Baseline) was “(−1.5%)”, the “Crows Feet Wrinkles clinical grading % Change” value (facial skin; Week 1 vs Baseline) was “(−0.5%)” and the “Face Fine Lines (Overall) clinical grading % Change” value (facial skin; Week 1 vs Baseline) was “(−3.7%)”. For the same compound, the “Face Global Firmness Appearance clinical grading % Change” value (facial skin; Week 1 vs Baseline) was “(0.3%)”, the “Face Jawline Contour clinical grading % Change” value (facial skin; Week 1 vs Baseline) was “(0.0%)” and the “Face Mottled Pigmentation clinical grading % Change” value (facial skin; Week 1 vs Baseline) was “(−0.7%)”. The “Face Overall Appearance clinical grading % Change” value (facial skin; Week 1 vs Baseline) was “(−4.2%)”, the “Face Pore Size clinical grading % Change” value (facial skin; Week 1 vs Baseline) was “(−2.4%)” and the “Face Radiance clinical grading % Change” value (facial skin; Week 1 vs Baseline) was “(−11.0%)”. For the same compound, the “Face Tactile Roughness/Smoothness clinical grading % Change” value (facial skin; Week 1 vs Baseline) was “(−30.7%)”, the “Face Uneven Skin Tone clinical grading % Change” value (facial skin; Week 1 vs Baseline) was “(−0.7%)” and the “Under-Eye Area Wrinkles clinical grading % Change” value (facial skin; Week 1 vs Baseline) was “(−1.7%)”. For the same compound, the “Cheek Wrinkles clinical grading Mean” value (facial skin; Week 4) was 2.26, the “Under-Eye Area Wrinkles clinical grading Mean” value (facial skin; Week 4) was 2.79 and the “Crows Feet Wrinkles clinical grading Mean” value (facial skin; Week 4) was 3.00. For the same compound, the “Face Tactile Roughness/Smoothness clinical grading Mean” value (facial skin; Week 4) was 2.02, the “Face Fine Lines (Overall) clinical grading Mean” value (facial skin; Week 4) was 3.76 and the “Face Pore Size clinical grading Mean” value (facial skin; Week 4) was 4.05. For the same compound, the “Face Global Firmness Appearance clinical grading Mean” value (facial skin; Week 4) was 4.86, the “Face Mottled Pigmentation clinical grading Mean” value (facial skin; Week 4) was 4.74 and the “Face Uneven Skin Tone clinical grading Mean” value (facial skin; Week 4) was 4.74. The “Face Jawline Contour clinical grading Mean” value (facial skin; Week 4) was 5.10, the “Face Overall Appearance clinical grading Mean” value (facial skin; Week 4) was 4.91 and the “Face Radiance clinical grading Mean” value (facial skin; Week 4) was 4.90. For the same compound, the “Cheek Wrinkles clinical grading % Change” value (facial skin; Week 4 vs Baseline) was “(−6.4%)”, the “Crows Feet Wrinkles clinical grading % Change” value (facial skin; Week 4 vs Baseline) was “(−8.9%)” and the “Face Fine Lines (Overall) clinical grading % Change” value (facial skin; Week 4 vs Baseline) was “(−12.4%)”. For the same compound, the “Face Global Firmness Appearance clinical grading % Change” value (facial skin; Week 4 vs Baseline) was “(−3.4%)”, the “Face Jawline Contour clinical grading % Change” value (facial skin; Week 4 vs Baseline) was “(−1.0%)” and the “Face Mottled Pigmentation clinical grading % Change” value (facial skin; Week 4 vs Baseline) was “(−6.1%)”. The “Face Overall Appearance clinical grading % Change” value (facial skin; Week 4 vs Baseline) was “(−10.0%)”, the “Face Pore Size clinical grading % Change” value (facial skin; Week 4 vs Baseline) was “(−8.2%)” and the “Face Radiance clinical grading % Change” value (facial skin; Week 4 vs Baseline) was “(−15.7%)”. The “Face Tactile Roughness/Smoothness clinical grading % Change” value (facial skin; Week 4 vs Baseline) was “(−42.0%)”, the “Face Uneven Skin Tone clinical grading % Change” value (facial skin; Week 4 vs Baseline) was “(−6.1%)” and the “Under-Eye Area Wrinkles clinical grading % Change” value (facial skin; Week 4 vs Baseline) was “(−12.4%)”. The “Cheek Wrinkles clinical grading Mean” value (facial skin; Week 8) was 2.12, the “Under-Eye Area Wrinkles clinical grading Mean” value (facial skin; Week 8) was 2.55 and the “Crows Feet Wrinkles clinical grading Mean” value (facial skin; Week 8) was 2.71. For the same compound, the “Face Tactile Roughness/Smoothness clinical grading Mean” value (facial skin; Week 8) was 1.43, the “Face Fine Lines (Overall) clinical grading Mean” value (facial skin; Week 8) was 3.47 and the “Face Pore Size clinical grading Mean” value (facial skin; Week 8) was 3.86. For the same compound, the “Face Global Firmness Appearance clinical grading Mean” value (facial skin; Week 8) was 4.64, the “Face Mottled Pigmentation clinical grading Mean” value (facial skin; Week 8) was 4.57 and the “Face Uneven Skin Tone clinical grading Mean” value (facial skin; Week 8) was 4.57. For the same compound, the “Face Jawline Contour clinical grading Mean” value (facial skin; Week 8) was 4.95, the “Face Overall Appearance clinical grading Mean” value (facial skin; Week 8) was 4.67 and the “Face Radiance clinical grading Mean” value (facial skin; Week 8) was 4.72. The “Cheek Wrinkles clinical grading % Change” value (facial skin; Week 8 vs Baseline) was “(−12.1%)”, the “Crows Feet Wrinkles clinical grading % Change” value (facial skin; Week 8 vs Baseline) was “(−17.8%)” and the “Face Fine Lines (Overall) clinical grading % Change” value (facial skin; Week 8 vs Baseline) was “(−19.2%)”. The “Face Global Firmness Appearance clinical grading % Change” value (facial skin; Week 8 vs Baseline) was “(−7.8%)”, the “Face Jawline Contour clinical grading % Change” value (facial skin; Week 8 vs Baseline) was “(−4.0%)” and the “Face Mottled Pigmentation clinical grading % Change” value (facial skin; Week 8 vs Baseline) was “(−9.5%)”. For the same compound, the “Face Overall Appearance clinical grading % Change” value (facial skin; Week 8 vs Baseline) was “(−14.5%)”, the “Face Pore Size clinical grading % Change” value (facial skin; Week 8 vs Baseline) was “(−12.5%)” and the “Face Radiance clinical grading % Change” value (facial skin; Week 8 vs Baseline) was “(−18.6%)”. For the same compound, the “Face Tactile Roughness/Smoothness clinical grading % Change” value (facial skin; Week 8 vs Baseline) was “(−58.9%)”, the “Face Uneven Skin Tone clinical grading % Change” value (facial skin; Week 8 vs Baseline) was “(−9.5%)” and the “Under-Eye Area Wrinkles clinical grading % Change” value (facial skin; Week 8 vs Baseline) was “(−20.0%)”. The “Cheek Wrinkles clinical grading Mean” value (facial skin; Week 12) was 2.02, the “Under-Eye Area Wrinkles clinical grading Mean” value (facial skin; Week 12) was 2.24 and the “Crows Feet Wrinkles clinical grading Mean” value (facial skin; Week 12) was 2.48. The “Face Tactile Roughness/Smoothness clinical grading Mean” value (facial skin; Week 12) was 0.98, the “Face Fine Lines (Overall) clinical grading Mean” value (facial skin; Week 12) was 3.10 and the “Face Pore Size clinical grading Mean” value (facial skin; Week 12) was 3.71. The “Face Global Firmness Appearance clinical grading Mean” value (facial skin; Week 12) was 4.48, the “Face Mottled Pigmentation clinical grading Mean” value (facial skin; Week 12) was 4.33 and the “Face Uneven Skin Tone clinical grading Mean” value (facial skin; Week 12) was 4.34. For the same compound, the “Face Jawline Contour clinical grading Mean” value (facial skin; Week 12) was 4.74, the “Face Overall Appearance clinical grading Mean” value (facial skin; Week 12) was 4.50 and the “Face Radiance clinical grading Mean” value (facial skin; Week 12) was 4.59. For the same compound, the “Cheek Wrinkles clinical grading % Change” value (facial skin; Week 12 vs Baseline) was “(−16.4%)”, the “Crows Feet Wrinkles clinical grading % Change” value (facial skin; Week 12 vs Baseline) was “(−24.6%)” and the “Face Fine Lines (Overall) clinical grading % Change” value (facial skin; Week 12 vs Baseline) was “(−27.7%)”. For the same compound, the “Face Global Firmness Appearance clinical grading % Change” value (facial skin; Week 12 vs Baseline) was “(−10.9%)”, the “Face Jawline Contour clinical grading % Change” value (facial skin; Week 12 vs Baseline) was “(−8.0%)” and the “Face Mottled Pigmentation clinical grading % Change” value (facial skin; Week 12 vs Baseline) was “(−14.3%)”. For the same compound, the “Face Overall Appearance clinical grading % Change” value (facial skin; Week 12 vs Baseline) was “(−17.6%)”, the “Face Pore Size clinical grading % Change” value (facial skin; Week 12 vs Baseline) was “(−16.0%)” and the “Face Radiance clinical grading % Change” value (facial skin; Week 12 vs Baseline) was “(−21.0%)”. The “Face Tactile Roughness/Smoothness clinical grading % Change” value (facial skin; Week 12 vs Baseline) was “(−71.7%)”, the “Face Uneven Skin Tone clinical grading % Change” value (facial skin; Week 12 vs Baseline) was “(−13.9%)” and the “Under-Eye Area Wrinkles clinical grading % Change” value (facial skin; Week 12 vs Baseline) was “(−29.7%)”. The “Ultrasound Density Mean” value ([1]; Week 4) was 21.38, the “Ultrasound Density % Change” value ([1]; Week 4 vs Baseline) was “(15.2%)” and the “Ultrasound Density Mean” value ([1]; Week 8) was 23.52. The “Ultrasound Density % Change” value ([1]; Week 8 vs Baseline) was “(26.7%)”, the “Ultrasound Density Mean” value ([1]; Week 12) was 25.21 and the “Ultrasound Density % Change” value ([1]; Week 12 vs Baseline) was “(35.8%)”.
